Consider one molecule from BindingDB's records for doi:10.1021/acs.jnatprod.5b00062 (Albert-Ludwigs-University of Freiburg, 2015).

Assay [1] addresses Sodium/potassium-transporting ATPase subunit alpha-1 (Rattus norvegicus, UniProt P06685). Put plainly: Inhibition of Wistar rat kidney Na+,K+-ATPase alpha1 after 2 hrs.
The target in assay [2] is Sarcoplasmic/endoplasmic reticulum calcium ATPase 1 (Rattus norvegicus, UniProt Q64578). Briefly: Inhibition of Wistar rat EDL muscle SERCA1a after 1 hr.
Sarcoplasmic/endoplasmic reticulum calcium ATPase 1, sequence (Q64578 whole entry): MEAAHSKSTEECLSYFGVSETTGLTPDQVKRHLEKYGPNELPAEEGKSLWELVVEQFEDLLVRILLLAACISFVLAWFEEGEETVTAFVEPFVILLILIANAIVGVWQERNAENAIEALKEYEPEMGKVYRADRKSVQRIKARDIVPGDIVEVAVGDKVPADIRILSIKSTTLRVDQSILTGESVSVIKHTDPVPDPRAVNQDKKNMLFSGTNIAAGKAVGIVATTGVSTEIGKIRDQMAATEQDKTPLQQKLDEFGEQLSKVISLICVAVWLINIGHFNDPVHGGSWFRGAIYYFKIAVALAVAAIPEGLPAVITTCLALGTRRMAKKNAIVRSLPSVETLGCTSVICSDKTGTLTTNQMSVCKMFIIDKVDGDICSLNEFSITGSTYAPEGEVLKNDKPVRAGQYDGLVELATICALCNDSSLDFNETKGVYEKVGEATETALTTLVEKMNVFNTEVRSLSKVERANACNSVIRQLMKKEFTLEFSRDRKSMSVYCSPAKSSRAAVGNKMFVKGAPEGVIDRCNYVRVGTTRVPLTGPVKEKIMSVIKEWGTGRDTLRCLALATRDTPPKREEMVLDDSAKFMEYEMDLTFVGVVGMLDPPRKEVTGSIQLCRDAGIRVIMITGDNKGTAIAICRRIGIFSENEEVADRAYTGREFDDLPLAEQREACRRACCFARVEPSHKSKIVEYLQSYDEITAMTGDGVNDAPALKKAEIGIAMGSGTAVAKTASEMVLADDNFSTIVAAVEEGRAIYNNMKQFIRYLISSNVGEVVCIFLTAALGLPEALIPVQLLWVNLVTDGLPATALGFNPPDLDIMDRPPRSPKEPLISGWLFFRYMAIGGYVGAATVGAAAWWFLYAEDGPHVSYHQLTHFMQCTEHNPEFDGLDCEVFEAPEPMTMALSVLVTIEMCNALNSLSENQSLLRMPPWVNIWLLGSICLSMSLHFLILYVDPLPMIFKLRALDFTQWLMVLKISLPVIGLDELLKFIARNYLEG

Usually IC50 stands for the concentration that gives 50% inhibition. Take `CC[C@H](C)[C@H]1O[C@]2(CC[C@@H]1C)C[C@@H]1C[C@@H](C/C=C(\C)[C@@H](O[C@H]3C[C@H](OC)[C@@H](O[C@H]4C[C@H](OC)[C@@H](O)[C@H](C)O4)[C@H](C)O3)[C@@H](C)/C=C/C=C3\CO[C@@H]4[C@H](O)C(C)=C[C@@H](C(=O)O1)[C@]34O)O2` [ABAMECTIN]: the results for the IC50 in assay [1] and in assay [2] were 8.23 µM and 16.9 µM, respectively.
